The inhibition is the percentage by which the read-out fell short of the control. As a reminder, the LD50 is the dose expected to kill half of the subjects tested. Higher therefore signals a less toxic substance. Usually IC50 stands for the concentration at which inhibition is half-maximal.

One data set deals with cholesterol. Briefly: Antilipemic effect: percent total cholesterol inhibition in plasma of rats given an olive oil-cholesterol mixture. Format: in vivo, male Wistar rats. The conditions noted are these: oral 100 mg/kg, plasma 8 hours after dosing, Wistar rat; read-out: Anti-lipemic effect, CS (percent cholesterol inhibition). In outline:
(§1)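 Male Wistar rats, seven weeks old, 200 to 220 g, 5 per group, dosed orally at 100 or 200 mg/kg in olive oil-cholesterol mixture (15% cholesterol) at 10 ml/kg. Plasma triglycerides measured at 2 hours, total cholesterol at 8 hours, by enzymatic kits; percent inhibition calculated relative to vehicle control and untreated normal groups.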

The subject of another data set is triglycerides. Briefly: Antilipemic effect: percent triglycerides inhibition in plasma of rats given an olive oil-cholesterol mixture. Format: in vivo, male Wistar rats. The conditions noted are these: oral 100 mg/kg, plasma 2 hours after dosing, Wistar rat; read-out: Anti-lipemic effect, TG (percent triglycerides inhibition). An outline of the steps: as §1
For a further data set, the target named is chymotripsin (Bos taurus, UniProt P00766). As to the kind of experiment: Chymotripsin inhibiting activity. Conditions: 0.5 h; compound 1×10^-4 mole, ATEE substrate, pH 8.0, 37° C.; read-out: Percent chymotripsin inhibition. Format: biochemical. The protocol: Chymotripsin (0.1 unit) serving as an enzyme solution is added to a specified quantity of buffer solution containing 0.1 mole of trishydrochloric acid (pH 8.0). To the mixture is further added a 50% ethanol solution of the compound of the invention so that the resulting mixture contains the compound in a concentration of 1×10^-4 mole. The mixture is reacted at 37° C. for 20 minutes.
On completion of the reaction, 10 micromoles of N-acetyl-L-thyrosine ethyl ester (ATEE) serving as a substrate is added to the mixture, and the resulting mixture is reacted at 37° C. for 30 minutes.
After the completion of the reaction, the amount of remaining ATEE is determined by the same hydroxamic acid method as above. The percent chymotripsin inhibition is given by [formula] wherein A is the amount of hydrolyzed esters in the reaction system not containing the compound of the invention, and B is the amount of hydrolyzed esters in the reaction system containing the present compound.

The nature of a further data set: Acute toxicity. The conditions noted are these: rat, in vivo, po. An excerpt: Six-week-old male Wistar rats weighing 180 to 200 g are used, 5 rats in each group. Each compound of the invention is suspended in a 30% aqueous solution of polyethylene glycol 6000 and orally given to the rat at the dosage shown in Table 2. The animals are checked for poisoning, body weight and survival to determine the LD50 value.

The next data set deals with esterase. Briefly: Esterase inhibiting activity. Format: biochemical. The conditions noted are these: rat liver microsome esterase, methyl butyrate substrate, pH 8.0, 37° C., 60 minutes; read-out: IC50 for esterases. The procedure:
A 10 micromole quantity of methyl butyrate in a 50% ethanol solution is added as a substrate to a specified amount of buffer solution containing 0.1 mole of trishydrochloric acid (pH 8.0). To the mixture is further added a 50% ethanol solution of the compound of the invention, immediately followed by addition of an esterase solution prepared from a purified microsome fraction of the liver of a rat (adjusted to hydrolyze 9 micromoles of methyl butyrate at 37° C. in one hour) as an enzyme solution. The mixture is reacted at 37° C. for 60 minutes.
After the reaction, alkaline hydroxylamine is added to the mixture to form a hydroxamic acid derivative of methyl butyrate, and a ferric salt is added to the derivative. The resulting red color is colorimetrically determined (at a wavelength of 540 nm) to determine the amount of remaining methyl butyrate. The esterase inhibiting ratios of the present compound at least at three concentrations are plotted as ordinate, and the logarithms of the concentrations as abscissa to obtain a line, which gives the 50% inhibition concentration (IC50).
On the technique in general: Microsomes from liver hold many membrane-bound enzymes, among them those of drug oxidation.

The conditions of data set [1]: reported in the literature; cited from earlier work.

Turning to `CCCC(C)CC(=O)COS(=O)(=O)c1c(C)cc(C)cc1C` (centres unmarked) [Compound 158], the inhibition in vivo at 100 mg/kg with cholesterol came out at 70%; in the data set with triglycerides it was 74%. For the same compound, on chymotripsin, the inhibition at 100 µM came to 17%. Besides, in the data set “Acute toxicity”, the LD50 was > 4000 mg/kg. Moreover, the half-maximal inhibitory concentration (IC50) on esterase is 400 nM.

On to `CCCCCC(C)C(=O)COS(=O)(=O)c1c(C)cc(C)cc1C` (centres unmarked) [Compound 162], for which the inhibition in vivo at 100 mg/kg is 77% in the data set on cholesterol and 75% in the data set with triglycerides. On chymotripsin, the inhibition at 100 µM was found to be 32%. The LD50 in the data set “Acute toxicity” is > 4000 mg/kg. Moreover, the IC50 at esterase came out at 2000 nM.

For the compound `O=C(O)c1cccnc1` [nicotinic acid], the Side effects result in data set [1] was “pruritus and cutaneous flushing due to vasodilatation, gastrointestinal disorders, abnormalities in liver function and glucose intolerance”.

The values are drawn from patent US4489091A, “Antilipemic and anti-inflammatory compositions containing sulfonate derivatives” (Taiho Pharmaceutical Company Limited, priority 1980, dated 1984).
